One block for each compound: values may come before it.
Experiments:
786-O cell line = assay: CellTiter-Glo growth inhibition assay, 786-O; format: cell-based; settings: Homo sapiens, 786-0, 72 h
Procedure: (§1) CAKI-1 and 786-0 cell lines were maintained in RPMI 1640 medium (Dutscher, L0498) containing 1% penicillin-streptomycin (Dutscher, P06-07100) and 10% Fetal Bovine Serum (Gibco, W3387L) and cultured at 37° C. with 5% CO2.
(§2) Cell viability was measured using the CellTiter-Glo® luminescent cell viability assay as described by the manufacturer (Promega, Ref G7571) using an Infinite F200Pro luminometer (Tecan). Briefly, cells were plated onto 96-well plates (white with clear bottom) in 90 μL of media per well and were allowed to grow overnight before the assay.
(§3) Compounds 2-3 and two reference compounds (Sorafenib and Sunitinib) were added at different concentrations to each well, and cell cultures were incubated for 72 h. For compound 2-3 analysis, H2O was used as a negative control (=untreated) and all concentrations were tested in a constant percentage of H2O. For Sorafenib and Sunitinib analysis, DMSO was used as a negative control (=untreated) and all concentrations were tested in a constant percentage of DMSO. 72 h after incubation of compounds, 100 μL of CellTiter-Glo® were added to each well and luminescence was measured using an Infinite F200Pro (Tecan). EC50 values were determined as the dose of compound required to reduce luminescent values to 50% of the signal obtained for untreated cell cultures. The experimental data were analyzed using a computer program, Graphpad Prism v5 (GraphPad Software, Inc. La Jolla, Calif.). All experiments were at least done in triplicate and repeated at least three independent times.

CAKI-1 cell line = assay: CellTiter-Glo growth inhibition assay, CAKI-1; format: cell-based; settings: Homo sapiens, CAKI-1, 72 h
Procedure: as §1, §2, §3

[1] = test system: ALDH+ (CSC) population of MOLM-14 cell line; assay: Aldefluor kit assay, ALDH+ compartment in MOLM-14; format: cell-based, human; settings: 72 h, control = 100
Excerpt: Analysis of the of aldehyde dehydrogenase (ALDH) compartment and high activity level of aldehyde dehydrogenase activity (ALDH+) was used to detect tumor initiating cells (cancer stem cells, CSC) population. The Aldefluor™ kit assay (StemCell Technologies, 01700) allowed to assess the activity of drugs on CSC cells like in a MOLM-14 acute myeloid leukemia cell line population (ref: Storms, R. W., Trujillo, A. P., Springer, J. B., Shah, L., Colvin, O. M., Ludeman, S. M., & Smith, C. (1999). Isolation of primitive human hematopoietic progenitors on the basis of aldehyde dehydrogenase activity. Proceedings of the National Academy of Sciences, 96(16), 9118-9123). The Aldefluor™ kit assay was used according to the procedure described by the manufacturer. Briefly, MOLM-14 cell line was cultured in MEM alpha medium supplemented with 10% v/v Fetal Bovine Serum, 1% Penicillin-Streptomycin and maintained at 37° C. with 5% CO2. 5·10^5 cells were used in this assay. Each compound was added at different concentrations (see table 8), and cell cultures were incubated for 72 h. Vehicle (H2O) was used as a control, and all compounds were tested in a constant percentage of vehicle. Cells obtained from cell culture were incubated for 45 minutes at 37° C. with Aldefluor™ buffer assay containing the Bodipy™-aminoacetaldehyde, a fluorescent ALDH aldehyde substrate. ALDH converts the fluorescent substrate BAAA to the Bodipy™-aminoacetic acid (BAA) which is retained in the cell. An active efflux inhibitor is present in the Adelfluor™ assay buffer in order to avoid the active efflux from the cell of the substrate product ALDH dependent converted BAA. The fluorescent signal is directly proportional to the ALDH activity in the cells and is measured by flow cytometry. A negative control is used to measure the background fluorescence level. For such purpose, 4-(N,N-diethylamino)-benzaldehyde (DEAB) was used as selective ALDH inhibitor. A viability cell count was performed using LIVE/DEAD® Fixable Far Red Dead Cell Stain Kit (Invitrogen). The experimental data are analyzed using a computer program, Graphpad Prism v5 (GraphPad Software, Inc. La Jolla, Calif.) and EC50 values were determined as the dose of compound required to reduce absorbance values to 50% of the signal obtained for vehicle treated cell cultures.

MOLM-14 cell line = assay: CellTiter-Glo growth inhibition assay, MOLM-14 (Example 6); format: cell-based, human; settings: MOLM-14, 72 h, method of Example 6
Procedure: MOLM-14 cell line was cultured in MEM alpha medium supplemented with 10% v/v Fetal Bovine Serum, 1% Penicillin-Streptomycin and maintained at 37° C. with 5% CO2. 10,000 cells were plated onto 96-well plates immediately before the assay.
Each compound was added at different concentrations (combinations of six concentrations) to each well, and cell cultures were incubated for 72 h. Vehicle (H2O) was used as a control, and all compounds were tested in a constant percentage of vehicle. Cell outgrowth was measured using the CellTiter-Glo® luminescent cell viability assay as described by the manufacturer (Promega, Ref G7571 Madison, Wis., USA) using a Centro (Berthold, France) plate reader.
In each experiment, each point represents the average of triplicates in cell culture.
(§4) The experimental data are analyzed using a computer program, Graphpad Prism v5 (GraphPad Software, Inc. La Jolla, Calif.) and EC50 values were determined as the dose of compound required to reduce absorbance values to 50% of the signal obtained for vehicle treated cell cultures.

[2] = test system: LI1646 HCC patient derived cells; assay: CellTiter-Glo growth inhibition, HCC patient-derived cells LI1646; format: cell-based, human; settings: LI1646, 72 hours
Procedure: (§5) The patient derived Hepatocellular Carcinoma (HCC) cells were maintained in medium respectively described in table 15 containing 1% penicillin-streptomycin (Life Technologies, 15070-063), with a supplements for primary cell culture (PCS) containing hydrocortisone (50 nM), Epidermal Growth Factor (20 ng/ml), β-fibroblast Growth Factor (10 ng/ml), Heparin (2 μg/ml) ITS liquid media supplement (1×) and non-essential amino acid (NEAA, 0.01 mM, 1×). The primary cell were cultured in a humidified atmosphere (95% relative humidity) with 5% CO2 at 37° C.
(§6) The cell growth inhibition assay was performed as described previously in example 5 using the CellTiter-Glo® luminescent cell viability assay as described by the manufacturer (Promega, Ref G7571). The number of cells seeded per well (in 96-Well Flat Clear Bottom Black Polystyrene TC-Treated Microplates, Cat #3340, Corning®) is described in the table 16. A backseal black sticker (Cat #6005189, Perkin Elmer) was placed to the bottom of each plate before recording CellTiter-Glo® luminescence.
as §4, with “V 5.0” for “v5”, “cultures and were a mean of at least three independent experiments.” for “cultures.”

[3] = test system: LI0612 HCC patient derived cells; assay: CellTiter-Glo growth inhibition, HCC patient-derived cells LI0612; format: cell-based, human; settings: LI0612, 72 hours
Procedure: as §5, §6
as §4, with “V 5.0” for “v5”, “cultures and were a mean of at least three independent experiments.” for “cultures.”

[4] = test system: LI0801 HCC patient derived cells; assay: CellTiter-Glo growth inhibition, HCC patient-derived cells LI0801; format: cell-based, human; settings: LI0801, 72 hours
Procedure: as §5, §6
as §4, with “V 5.0” for “v5”, “cultures and were a mean of at least three independent experiments.” for “cultures.”

[5] = test system: LI0574 HCC patient derived cells; assay: CellTiter-Glo growth inhibition, HCC patient-derived cells LI0574; format: cell-based, human; settings: LI0574, 72 hours
Procedure: as §5, §6
as §4, with “V 5.0” for “v5”, “cultures and were a mean of at least three independent experiments.” for “cultures.”

[6] = test system: LI0050 HCC patient derived cells; assay: CellTiter-Glo growth inhibition, HCC patient-derived cells LI0050; format: cell-based, human; settings: LI0050, 72 hours
Procedure: as §5, §6
as §4, with “V 5.0” for “v5”, “cultures and were a mean of at least three independent experiments.” for “cultures.”

[7] = test system: LI0752 HCC patient derived cells; assay: CellTiter-Glo growth inhibition, HCC patient-derived cells LI0752; format: cell-based, human; settings: LI0752, 72 hours
Procedure: as §5, §6
as §4, with “V 5.0” for “v5”, “cultures and were a mean of at least three independent experiments.” for “cultures.”

[8] = test system: LI1098 HCC patient derived cells; assay: CellTiter-Glo growth inhibition, HCC patient-derived cells LI1098; format: cell-based, human; settings: LI1098, 72 hours
Procedure: as §5, §6
as §4, with “V 5.0” for “v5”, “cultures and were a mean of at least three independent experiments.” for “cultures.”

[9] = test system: LI1005 HCC patient derived cells; assay: CellTiter-Glo growth inhibition, HCC patient-derived cells LI1005; format: cell-based, human; settings: LI1005, 72 hours
Procedure: as §5, §6
as §4, with “V 5.0” for “v5”, “cultures and were a mean of at least three independent experiments.” for “cultures.”

- EC50 (786-O cell line): 6 µM
SMILES: CCN(CC)CCNC(=O)c1c(C)[nH]c(/C=C2\C(=O)Nc3ccc(F)cc32)c1C [Sunitinib]
- EC50 (CAKI-1 cell line): 1.7 µM

- EC50 (MOLM-14 cell line): 0.29 µM
SMILES: Nc1ccn([C@@H]2O[C@H](CO)[C@@H](O)[C@@H]2O)c(=O)n1 [Cytarabin, reference compound]
- ALdefluor positive CSCs (%) ([1]; MOLM-14, 1 μM): 130%
- ALdefluor positive CSCs (%) ([1]; MOLM-14, 3 μM): 116%

SMILES: N.N.[Cl][Pt][Cl] [Cisplatin]
- EC50 [2]: 10 µM
- EC50 [3]: 16.3 µM
- EC50 [4]: 1.5 µM
- EC50 [5]: 3.6 µM
- EC50 [6]: 1.3 µM
- EC50 [7]: 2.6 µM
- EC50 [8]: 5.1 µM
- EC50 [9]: 5.9 µM

- EC50 ([2]; Homo sapiens): 10.3 µM
- EC50 ([3]; Homo sapiens): 17.9 µM
- EC50 ([4]; Homo sapiens): 5.7 µM
- EC50 ([5]; Homo sapiens): 8.7 µM
- EC50 (786-O cell line): 6.8 µM
- EC50 ([6]; Homo sapiens): 9.1 µM
- EC50 ([7]; Homo sapiens): 6.3 µM
- EC50 ([8]; Homo sapiens): 10.9 µM
- EC50 ([9]; Homo sapiens): 14.5 µM
SMILES: CNC(=O)c1cc(Oc2ccc(NC(=O)Nc3ccc(Cl)c(C(F)(F)F)c3)cc2)ccn1 [Sorafenib]
- EC50 (CAKI-1 cell line): 4.5 µM
